Data from patent publication US20230174507A1, “IMIDAZOLE 3-OXIDE DERIVATIVE BASED ACSS2 INHIBITORS AND METHODS OF USE THEREOF” (METABOMED LTD., priority 2020, published 2023).

Columns and labels:
[1] = target: T1, human ACSS1 protein (Homo sapiens, UniProt Q9NUB1); experiment: ACSS1 cell-free activity assay (pyrophosphatase-coupled, Biomol green); format: biochemical; settings: 5 nM human ACSS1, 30 minutes at room temperature, absorbance at 620 nm; for IC50: read-out: ACSS1 Biochemical IC50
T1 construct: purchased MyBioSource
T1 sequence (Q9NUB1 38-689): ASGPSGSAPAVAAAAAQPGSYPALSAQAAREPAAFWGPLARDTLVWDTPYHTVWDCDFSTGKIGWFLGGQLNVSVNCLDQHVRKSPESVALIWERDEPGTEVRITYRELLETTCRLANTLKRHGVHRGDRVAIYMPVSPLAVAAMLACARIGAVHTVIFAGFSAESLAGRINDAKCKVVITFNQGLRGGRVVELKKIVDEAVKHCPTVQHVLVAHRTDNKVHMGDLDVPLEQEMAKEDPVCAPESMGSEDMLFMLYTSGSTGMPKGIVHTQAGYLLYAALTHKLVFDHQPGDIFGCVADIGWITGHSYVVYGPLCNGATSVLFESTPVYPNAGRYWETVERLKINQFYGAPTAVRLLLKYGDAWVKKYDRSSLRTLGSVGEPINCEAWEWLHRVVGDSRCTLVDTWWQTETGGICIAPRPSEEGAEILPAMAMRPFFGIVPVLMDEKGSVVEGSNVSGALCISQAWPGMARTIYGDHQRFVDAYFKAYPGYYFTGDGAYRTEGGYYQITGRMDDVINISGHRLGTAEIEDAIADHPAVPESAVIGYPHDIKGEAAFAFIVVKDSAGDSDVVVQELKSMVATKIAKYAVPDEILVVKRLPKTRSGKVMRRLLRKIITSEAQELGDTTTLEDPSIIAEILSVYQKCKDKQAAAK
Procedure, shortened: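 5 nM human ACSS1 incubated 30 min at RT with compound in pH 7.5 Hepes buffer with 15 μM CoA, 5 mM acetate, 300 μM ATP, 2 mM MgCl2 and pyrophosphatase. Released phosphate detected with Biomol Green (30 min), absorbance 620 nm. IC50 from constrained non-linear regression.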

[2] = target: T2, human ACSS2 protein (Homo sapiens, UniProt Q9NR19); experiment: ACSS2 cell-free activity assay (pyrophosphatase-coupled, Biomol green); settings: 10 nM human ACSS2, 90 minutes at 37 C, absorbance at 620 nm; read-out: ACSS2 Biochemical IC50
T2 construct: purchased OriGene Technologies, Inc
Procedure, shortened: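 10 nM human ACSS2 incubated 90 min at 37 C with compound, 300 μM ATP, 10 μM CoA, 5 mM NaAc in pH 7.5 Hepes buffer with 0.5 U/ml pyrophosphatase. Released phosphate detected with Biomol Green at 620 nm; IC50 by non-linear regression constrained to 0% and 100%.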

[3] = target: T3, ACSS2 in MDA-MB-468 cells (Homo sapiens, UniProt Q9NR19); experiment: Cellular fatty-acid IC50: 13C-acetate incorporation into fatty acids (palmitate), LC-MS; format: cell-based; settings: hypoxic conditions (1% O2), 75% charcoal stripped serum, 5 hours, 13C-acetate into palmitate, read-out: Cellular Fatty-acid IC50 High Serum MDA468
T3 construct: endogenous in cells; host or cells: MDA-MB-468 cells, hypoxia (1% O2)
Procedure, shortened: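 MDA-MB-468 cells under hypoxia (1% O2) treated 5 h with compound (0.000512-1000 nM) in medium with 75% charcoal-stripped serum and 0.5 mM 13C-acetate. 13C-palmitate quantified by LC-MS (negative ion, RSIM). IC50 from inhibition versus no-compound control, background-subtracted, constrained 0–100% nonlinear fit.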

T3 sequence (Q9NR19 whole entry): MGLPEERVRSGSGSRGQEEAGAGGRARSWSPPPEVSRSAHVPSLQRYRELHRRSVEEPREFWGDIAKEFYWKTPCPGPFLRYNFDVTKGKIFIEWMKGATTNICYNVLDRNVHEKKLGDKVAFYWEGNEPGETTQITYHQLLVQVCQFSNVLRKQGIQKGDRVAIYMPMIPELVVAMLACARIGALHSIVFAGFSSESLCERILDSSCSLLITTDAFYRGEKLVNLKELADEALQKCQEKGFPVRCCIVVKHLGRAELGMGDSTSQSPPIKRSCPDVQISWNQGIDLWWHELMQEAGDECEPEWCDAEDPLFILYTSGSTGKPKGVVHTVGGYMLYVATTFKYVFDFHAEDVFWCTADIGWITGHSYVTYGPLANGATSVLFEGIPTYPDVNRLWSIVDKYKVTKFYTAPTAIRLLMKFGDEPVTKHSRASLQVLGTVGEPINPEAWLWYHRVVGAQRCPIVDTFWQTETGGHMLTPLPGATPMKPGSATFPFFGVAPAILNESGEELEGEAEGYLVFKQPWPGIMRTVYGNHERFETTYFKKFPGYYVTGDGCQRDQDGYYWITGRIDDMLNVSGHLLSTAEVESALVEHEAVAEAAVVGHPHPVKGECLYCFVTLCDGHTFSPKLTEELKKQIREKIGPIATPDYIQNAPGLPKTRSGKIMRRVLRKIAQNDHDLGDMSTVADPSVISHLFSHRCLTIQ
T2 sequence (Q9NR19 whole entry): as above

| Structure (SMILES) | ACSS1 Biochemical IC50 (nM) [1] | IC50 [2] [nM] | IC50 [3] [nM] | IC50 [1] [nM] |
| --- | --- | --- | --- | --- |
| CNS(=O)(=O)c1cccc(NC(=O)c2c(C)[nH]c(-c3ccc(OC)c(-c4c(C)cccc4C)c3)[n+]2[O-])c1 [Compound 187, 2-(6-methoxy-2′,6′-dimethyl-[1,1′-biphenyl]-3-yl)-5-methyl-4-((3-(N-methylsulfamoyl)phenyl)carbamoyl)-1H-imidazole 3-oxide] | Inactive | < 1 | 20 to 50 |  |
| COc1ccc(-c2[nH]c(C)c(C(=O)Nc3cccc(-c4ncon4)c3)[n+]2[O-])cc1-c1c(C)cccc1C [Compound 190, 4-((3-(1,2,4-oxadiazol-3-yl)phenyl)carbamoyl)-2-(6-methoxy-2′,6′-dimethyl-[1,1′-biphenyl]-3-yl)-5-methyl-1H-imidazole 3-oxide] | Inactive | < 1 | < 20 |  |
| CCC(F)(F)c1cccc(NC(=O)c2c(C)[nH]c(-c3cc(CCN4CCOCC4)c(OC)c(-c4c(C)cccc4C)c3)[n+]2[O-])c1 [Compound 192, 4-((3-(1,1-difluoropropyl)phenyl)carbamoyl)-2-(6-methoxy-2′,6′-dimethyl-5-(2-morpholinoethyl)-[1,1′-biphenyl]-3-yl)-5-methyl-1H-imidazole 3-oxide] |  | < 1 | 20 to 50 | > 30 |
| CNC(=S)c1cccc(NC(=O)c2c(C)[nH]c(-c3ccc(OC)c(-c4c(C)cccc4C)c3)[n+]2[O-])c1 [Compound 196, 2-(6-methoxy-2′,6′-dimethyl-[1,1′-biphenyl]-3-yl)-5-methyl-4-((3-(methylcarbamothioyl)phenyl)carbamoyl)-1H-imidazole 3-oxide] | Inactive | < 1 | < 20 |  |
| COc1cc(Cl)c(-c2[nH]c(C)c(C(=O)Nc3cccc(C(F)(F)C4CC4)c3)[n+]2[O-])cc1-c1c(C)cccc1C [Compound 198, 2-(4-chloro-6-methoxy-2′,6′-dimethyl-[1,1′-biphenyl]-3-yl)-4-((3-(cyclopropyldifluoromethyl)phenyl)carbamoyl)-5-methyl-1H-imidazole 3-oxide] | Inactive | < 1 | > 50 |  |
| COc1ccc(-c2[nH]c(C)c(C(=O)Nc3cccc(-c4cn(C)nn4)c3)[n+]2[O-])cc1-c1c(C)cccc1C [Compound 199, 2-(6-methoxy-2′,6′-dimethyl-[1,1′-biphenyl]-3-yl)-5-methyl-4-((3-(1-methyl-1H-1,2,3-triazol-4-yl)phenyl)carbamoyl)-1H-imidazole 3-oxide] | Inactive | < 1 | 20 to 50 |  |
| COc1ccc(-c2[nH]c(C)c(C(=O)Nc3cccc(-c4cnn(C)n4)c3)[n+]2[O-])cc1-c1c(C)cccc1C [Compound 201, 2-(6-methoxy-2′,6′-dimethyl-[1,1′-biphenyl]-3-yl)-5-methyl-4-((3-(2-methyl-2H-1,2,3-triazol-4-yl)phenyl)carbamoyl)-1H-imidazole 3-oxide] | Inactive | < 1 | < 20 |  |
| COc1cc(F)c(-c2[nH]c(C)c(C(=O)Nc3cccc(C(F)(F)C4CC4)c3)[n+]2[O-])nc1-c1c(C)cccc1C [Compound 202, 4-((3-(cyclopropyldifluoromethyl)phenyl)carbamoyl)-2-(6-(2,6-dimethylphenyl)-3-fluoro-5-methoxypyridin-2-yl)-5-methyl-1H-imidazole 3-oxide] | Inactive | < 1 | > 50 |  |
| Cc1cccc(C)c1-c1cc(-c2[nH]c(C)c(C(=O)Nc3cccc(C(F)(F)F)c3)[n+]2[O-])ccc1F [Compound 203, 2-(6-fluoro-2′,6′-dimethyl-[1,1′-biphenyl]-3-yl)-5-methyl-4-((3-(trifluoromethyl)phenyl)carbamoyl)-1H-imidazole 3-oxide] | Inactive | < 1 | > 50 |  |

More lines, now with the values ahead:

| ACSS1 Biochemical IC50 (nM) [1] | IC50 [2] [nM] | IC50 [3] [nM] | IC50 [1] [nM] | Structure (SMILES) |
| --- | --- | --- | --- | --- |
| Inactive | < 1 | < 20 |  | CNC(=O)c1cccc(NC(=O)c2c(C)[nH]c(-c3cc(-c4c(C)cccc4C)cc(N(C)C)c3)[n+]2[O-])c1 [Compound 182, 2-(5-(dimethylamino)-2′,6′-dimethyl-[1,1′-biphenyl]-3-yl)-5-methyl-4-((3-(methylcarbamoyl)phenyl)carbamoyl)-1H-imidazole 3-oxide] |
| Inactive | < 1 | > 50 |  | Cc1cccc(C)c1-c1cc(OCCN2CCCC2)cc(-c2[nH]c(C)c(C(=O)Nc3cccc(C(F)(F)C4CC4)c3)[n+]2[O-])c1 [Compound 183, 4-((3-(cyclopropyldifluoromethyl)phenyl)carbamoyl)-2-(2′,6′-dimethyl-5-(2-(pyrrolidin-1-yl)ethoxy)-[1,1′-biphenyl]-3-yl)-5-methyl-1H-imidazole 3-oxide] |
| Inactive | < 1 | < 20 |  | CNC(=O)c1cccc(NC(=O)c2c(C)[nH]c(-c3ccc(OC)c(-c4c(F)cccc4F)c3)[n+]2[O-])c1 [Compound 184, 2-(2′,6′-difluoro-6-methoxy-[1,1′-biphenyl]-3-yl)-5-methyl-4-((3-(methylcarbamoyl)phenyl)carbamoyl)-1H-imidazole 3-oxide] |
|  | < 1 | < 20 | > 30 | CNC(=O)c1cccc(NC(=O)c2c(C)[nH]c(-c3ccc(OC)c(-c4c(C)cc(F)cc4C)c3)[n+]2[O-])c1 [Compound 185, 2-(4′-fluoro-6-methoxy-2′,6′-dimethyl-[1,1′-biphenyl]-3-yl)-5-methyl-4-((3-(methylcarbamoyl)phenyl)carbamoyl)-1H-imidazole 3-oxide] |
| Inactive | < 1 | < 20 |  | CNC(=O)c1cccc(NC(=O)c2c(C)[nH]c(-c3ccc(OC)c(-c4c(C)cccc4C)n3)[n+]2[O-])c1 [Compound 186, 2-(6-(2,6-dimethylphenyl)-5-methoxypyridin-2-yl)-5-methyl-4-((3-(methylcarbamoyl)phenyl)carbamoyl)-1H-imidazole 3-oxide] |
| Inactive | < 1 | > 50 |  | Cc1cccc(C)c1-c1cc(-c2[nH]c(C)c(C(=O)Nc3cccc(C(F)(F)C4CC4)c3)[n+]2[O-])ccc1Cl [Compound 197, 2-(6-chloro-2′,6′-dimethyl-[1,1′-biphenyl]-3-yl)-4-((3-(cyclopropyldifluoromethyl)phenyl)carbamoyl)-5-methyl-1H-imidazole 3-oxide] |
| Inactive | < 1 | > 50 |  | COc1cc(F)c(-c2[nH]c(C)c(C(=O)Nc3cccc(C(F)(F)F)c3)[n+]2[O-])cc1-c1c(F)cccc1F [Compound 207, 5-methyl-2-(2′,4,6′-trifluoro-6-methoxy-[1,1′-biphenyl]-3-yl)-4-((3-(trifluoromethyl)phenyl)carbamoyl)-1H-imidazole 3-oxide] |
